Patent EP1311486B1, “USES OF THALIPORPHINE OR ITS DERIVATIVES IN TREATMENT OF CARDIAC DISEASES AND PREPARATION OF SAME” (Lotus Pharmaceutical Co., Ltd., priority 2000, dated 2002)
Several values for one entry are separate records, joined by “and”; a condition that tells them apart may be missing. Identical values can stand only once. Marks after values point to notes of the source that are not given here.

Experiments:
[1] = DPPH radical scavenging, absorbance at 517 nm; assay type: biochemical; settings: DPPH 100µM, 25°C, 30 minutes
Protocol: After incubation of various concentrations of THP with 1,1-diphenyl-2-picrylhydrazyl (DPPH, 100µM) at room temperature (25°C) for 30 minutes, decrease in the absorbance for DPPH at 517 nm was measured to determine the dose-response curve of THP in scavenging DPPH radicals.
In the 1,1-diphenyl-2-picrylhydrazyl (DPPH) assay system, the free radical scavenging activity of THP is expressed as IC0.200. The decrease in optical absorbance at 517 nm after addition of THP is monitored following the trapping of the unpaired electron of DPPH. Referring to FIG.4, THP scavenges DPPH in a concentration-dependent manner with IC0.200 of 12.4µmol/L.

in vivo anesthetized rat = assay: Reperfusion-induced arrhythmias in the anesthetized rat (5 minutes ischemia, 30 minutes reperfusion)
Protocol: Myocardial ischemia was performed by a temporary tightening of the silk ligature around the left main coronary artery. Reperfusion was achieved by releasing the tension applied to the ligature (operated groups). Sham operated animals underwent all surgical procedures, apart from the fact that the silk, passing around the left coronary artery, was not tied (sham groups). Animals were infused with a bolus of THP (3.5x10^-7, 3.5x10^-6, 3.5x10^-5 g/kg), L-NAME (N^∞-nitro-L-arginine methyl ester; 1x10^-3 g/kg) or vehicle (dimethyl sulfoxide/ NaCl 0.9%, 1:10^3; v/v) from a jugular vein 15 minutes before coronary occlusion. The coronary artery was occluded for 30 minutes or 5 minutes followed by 30 minutes reperfusion and with the animals then divided randomly in the following groups: (1) sham + vehicle; (2) sham + THP (3.5x10^-5g/kg); (3) operated + vehicle; (4) operated + THP (3.5x10^-7 g/kg); (5) operated + THP (3.5x10^-6 g/kg); (6) operated + THP (3.5x10^-5 g/kg); (7) operated + L-NAME (1x10^-3 g/kg) + THP (3.5x10^-5 g/kg). Before and during the ischemia or reperfusion period, heart rate (HR), blood pressure (BP) and ECG changes were recorded. Ventricular ectopic activity was evaluated according to the diagnostic criteria advocated in the Lambeth Convention. The incidence and duration of ventricular tachyarrhythmias, including ventricular tachycardia (VT) and ventricular fibrillation (VF), in surviving animals was determined. The Mann-Whitney rank-sum test was used to analyze the differences in the duration of VT and VF between vehicle and drug treated groups. The BP and HR changes between vehicle and drug treated rats in the arrhythmia study were analyzed by ANOVA (analysis of variance) followed by Bonferroni's test. The difference in the percentage incidence of VT, VF and mortality rate was analyzed with a Chi-square test. Table 2 Effect of THP on ischemia-induced arrhythmias in the in vivo anesthetized rat
The severity of reperfusion induced-arrhythmias is critically dependent upon the duration of the preceding period of ischemia. Thus, the protocol of a 5 minutes period of ischemia followed by a 30 minutes period of reperfusion is selected for producing the highest incidence of rhythm disturbance. […] In contrast, animals pretreated with THP (3.5x10^-6 and 3.5x10^-5 g/kg), experienced a drastic reduction in the incidence of VF from 88% to 29% and 13% (p<0.05) and the duration of VF from 92.4±20.5 seconds to 9.2±8.3 and 1.2±1.2 seconds (p<0.05). The mortality rate also decreases from 75% to 0% by 3.5x10^-6 g/kg THP (p<0.05). However, L-NAME coadministration only partially antagonizes the antiarrhythmic activity and mortality prevention effect of thaliporphine (3.5x10^-5 g/kg).

atria or ventricles = assay: Action potential duration in atria or ventricles; settings: 3-10µM, data not shown
Protocol: Moreover, 3-10µM THP prolongs the action potential duration in the atria or ventricles of both rats and guinea pigs (data not shown).

## COc1cc2c(cc1OC)-c1c(O)c(OC)cc3c1C(C2)N(C)CC3 (single isomer, unassigned; (+)) [THP, (+)-Thaliporphine]
[1]
  IC0.200, scavenging of DPPH: 12.4 µmol/L
In vivo anesthetized rat; THP 3.5x10^-5 g/kg i.v.
  Mortality (%): 0* %
  VF Duration: 1.2 ± 1.2 s
  VF Incidence(%): 13% and 14* %
  VT Duration: 7.6 ± 3.2 s
  VT Incidence(%): 71%
In vivo anesthetized rat; THP 3.5x10^-6 g/kg i.v.
  Mortality (%): 0%
  VF Duration: 9.2 ± 8.3 s
  VF Incidence(%): 29%
  VT Duration: 14.6 ± 9.1 s
  VT Incidence(%): 57%
In vivo anesthetized rat; THP 3.5x10^-7 g/kg i.v.
  Mortality (%): 43%
  VF Duration: 75.5 ± 15.6 s
  VF Incidence(%): 86%
  VT Duration: 28.6 ± 10.4 s
  VT Incidence(%): 86%
Atria or ventricles; atria or ventricles of guinea pigs
  action potential duration: prolongs
Atria or ventricles; atria or ventricles of rats
  action potential duration: prolongs
